In patent US11447466B2, “Substituted indole compounds useful as inhibitors of TLR7/8/9” (BRISTOL-MYERS SQUIBB COMPANY, priority 2017, dated 2022):

Legend:
Format in all cases: cell-based
human TLR8 = target: T1, human TLR8 (Homo sapiens, UniProt Q9NR97); experiment: TLR8 inhibition reporter assay (HEK-Blue SEAP reporter, R848 stimulation); settings: HEK-Blue cells overexpressing human TLR8, SEAP reporter, R848 15.9 μM, 22 hour incubation
T1 construct: host or cells: HEK-Blue cells
T1 sequence (Q9NR97 27-1041): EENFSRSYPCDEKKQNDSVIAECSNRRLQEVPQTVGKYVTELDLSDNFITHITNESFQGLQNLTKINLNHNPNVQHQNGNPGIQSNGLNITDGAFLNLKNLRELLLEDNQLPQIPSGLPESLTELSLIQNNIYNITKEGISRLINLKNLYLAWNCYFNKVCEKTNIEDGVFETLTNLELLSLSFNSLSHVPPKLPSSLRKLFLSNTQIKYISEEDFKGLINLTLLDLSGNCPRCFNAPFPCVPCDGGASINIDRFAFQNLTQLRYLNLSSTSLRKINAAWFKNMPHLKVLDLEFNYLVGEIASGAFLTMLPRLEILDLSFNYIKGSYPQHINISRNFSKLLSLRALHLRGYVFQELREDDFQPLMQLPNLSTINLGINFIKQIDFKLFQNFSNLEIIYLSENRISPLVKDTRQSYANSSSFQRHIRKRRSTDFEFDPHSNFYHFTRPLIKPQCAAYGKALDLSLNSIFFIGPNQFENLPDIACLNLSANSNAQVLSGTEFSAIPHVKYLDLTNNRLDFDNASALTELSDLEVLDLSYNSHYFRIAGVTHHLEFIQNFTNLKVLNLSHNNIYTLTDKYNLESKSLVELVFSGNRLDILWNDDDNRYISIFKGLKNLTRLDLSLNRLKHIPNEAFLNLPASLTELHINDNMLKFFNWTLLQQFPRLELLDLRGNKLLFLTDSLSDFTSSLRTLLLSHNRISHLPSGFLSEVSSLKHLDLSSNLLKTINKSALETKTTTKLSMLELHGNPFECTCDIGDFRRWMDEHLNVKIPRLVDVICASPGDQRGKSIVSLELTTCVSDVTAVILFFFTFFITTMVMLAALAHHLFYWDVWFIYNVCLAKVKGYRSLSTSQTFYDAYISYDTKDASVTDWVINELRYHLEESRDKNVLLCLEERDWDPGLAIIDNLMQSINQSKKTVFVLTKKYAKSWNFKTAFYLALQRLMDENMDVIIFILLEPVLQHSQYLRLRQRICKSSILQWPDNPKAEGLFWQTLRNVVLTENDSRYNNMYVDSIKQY
Summary of the method: (§1)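 Human TLR7/8/9 HEK-Blue reporter lines; dose range 0.05 nM–50 μM; 30 min RT preincubation; stimulus gardiquimod 7.5 μM / R848 15.9 μM / ODN2006 5 nM respectively; 22 h, 37 °C; SEAP detected colorimetrically.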

human TLR7 = target: T2, human TLR7 (Homo sapiens, UniProt Q9NYK1); experiment: TLR7 inhibition reporter assay (HEK-Blue SEAP reporter, gardiquimod stimulation); settings: HEK-Blue cells overexpressing human TLR7, SEAP reporter, gardiquimod 7.5 μM, 22 hour incubation
T2 construct: host or cells: HEK-Blue cells
T2 sequence (Q9NYK1 27-1049): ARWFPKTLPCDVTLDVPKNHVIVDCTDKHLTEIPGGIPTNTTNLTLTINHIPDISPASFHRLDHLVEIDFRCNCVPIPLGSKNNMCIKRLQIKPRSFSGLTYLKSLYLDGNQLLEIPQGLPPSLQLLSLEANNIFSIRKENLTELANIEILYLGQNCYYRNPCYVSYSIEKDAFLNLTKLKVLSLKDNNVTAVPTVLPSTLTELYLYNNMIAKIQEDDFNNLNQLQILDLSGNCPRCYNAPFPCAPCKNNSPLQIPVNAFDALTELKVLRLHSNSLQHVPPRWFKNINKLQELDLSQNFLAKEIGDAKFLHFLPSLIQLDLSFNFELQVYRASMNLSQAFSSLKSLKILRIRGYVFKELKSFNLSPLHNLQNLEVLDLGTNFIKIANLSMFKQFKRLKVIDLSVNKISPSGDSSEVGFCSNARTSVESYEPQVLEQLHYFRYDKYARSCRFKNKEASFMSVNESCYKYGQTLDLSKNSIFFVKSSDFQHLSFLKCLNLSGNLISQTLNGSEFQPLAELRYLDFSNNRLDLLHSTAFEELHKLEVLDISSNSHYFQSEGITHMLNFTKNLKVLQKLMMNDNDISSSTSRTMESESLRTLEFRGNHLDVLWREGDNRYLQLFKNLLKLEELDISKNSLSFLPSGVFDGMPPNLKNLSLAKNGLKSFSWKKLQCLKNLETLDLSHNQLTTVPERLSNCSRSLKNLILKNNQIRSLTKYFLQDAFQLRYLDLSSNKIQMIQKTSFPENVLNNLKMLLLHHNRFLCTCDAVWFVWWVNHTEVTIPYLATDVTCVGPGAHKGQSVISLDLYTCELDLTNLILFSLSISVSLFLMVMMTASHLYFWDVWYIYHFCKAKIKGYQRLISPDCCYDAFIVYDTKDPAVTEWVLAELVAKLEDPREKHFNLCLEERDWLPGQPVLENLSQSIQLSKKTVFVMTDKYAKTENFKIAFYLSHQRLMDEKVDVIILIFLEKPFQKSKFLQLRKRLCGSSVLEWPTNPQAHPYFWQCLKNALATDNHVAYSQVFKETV
Summary of the method: as §1

human TLR9 = target: T3, human TLR9 (Homo sapiens, UniProt Q9NR96); experiment: TLR9 inhibition reporter assay (HEK-Blue SEAP reporter, ODN2006 stimulation); settings: HEK-Blue cells overexpressing human TLR9, SEAP reporter, ODN2006 5 nM, 22 hour incubation
T3 construct: host or cells: HEK-Blue cells
T3 sequence (Q9NR96 26-1032): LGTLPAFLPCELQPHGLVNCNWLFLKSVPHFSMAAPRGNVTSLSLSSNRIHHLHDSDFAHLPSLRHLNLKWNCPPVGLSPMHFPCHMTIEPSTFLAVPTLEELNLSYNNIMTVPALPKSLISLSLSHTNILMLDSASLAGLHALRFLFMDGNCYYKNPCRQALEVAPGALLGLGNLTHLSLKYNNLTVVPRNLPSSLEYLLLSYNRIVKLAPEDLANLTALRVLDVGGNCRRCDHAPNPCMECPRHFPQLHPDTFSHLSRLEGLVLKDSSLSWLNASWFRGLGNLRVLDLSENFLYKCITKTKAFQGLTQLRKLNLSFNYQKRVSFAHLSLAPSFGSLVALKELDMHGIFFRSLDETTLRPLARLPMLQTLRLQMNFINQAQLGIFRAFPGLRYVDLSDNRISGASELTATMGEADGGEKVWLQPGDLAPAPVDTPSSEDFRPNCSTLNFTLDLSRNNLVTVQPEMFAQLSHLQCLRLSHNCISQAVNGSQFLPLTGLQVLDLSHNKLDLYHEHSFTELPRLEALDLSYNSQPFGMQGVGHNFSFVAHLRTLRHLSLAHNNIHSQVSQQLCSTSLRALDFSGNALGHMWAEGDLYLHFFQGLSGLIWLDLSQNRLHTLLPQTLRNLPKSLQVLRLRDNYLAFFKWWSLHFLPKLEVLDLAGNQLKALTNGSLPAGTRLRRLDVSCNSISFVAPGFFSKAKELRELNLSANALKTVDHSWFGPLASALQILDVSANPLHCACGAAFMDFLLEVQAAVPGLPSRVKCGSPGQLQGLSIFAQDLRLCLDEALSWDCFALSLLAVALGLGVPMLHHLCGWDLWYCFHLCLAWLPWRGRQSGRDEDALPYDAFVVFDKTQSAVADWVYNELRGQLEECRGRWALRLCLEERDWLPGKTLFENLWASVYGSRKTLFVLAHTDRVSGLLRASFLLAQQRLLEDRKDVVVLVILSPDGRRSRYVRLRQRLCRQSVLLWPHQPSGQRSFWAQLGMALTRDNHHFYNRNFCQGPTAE
Summary of the method: as §1

## CC(C)c1c(-c2cc(-c3cncnc3)c(=O)n(C)c2)[nH]c2ccc(C3CCN(CC4CCOC4)CC3)c(F)c12 (stereo not drawn) [Example 259, 5-(4-fluoro-3-isopropyl-5-(1-((tetrahydrofuran-3-yl)methyl)piperidin-4-yl)-1H-indol-2-yl)-1-methyl-3-(pyrimidin-5-yl)pyridin-2(1H)-one]
Human TLR8
  IC50: 0.6 nM
Human TLR7
  IC50: 6.1 nM
Human TLR9
  IC50: 983 nM

## CCCN1CCC(c2ccc3[nH]c(-c4cc(-c5cncnc5)c(=O)n(CC)c4)c(C(C)C)c3c2)CC1 [Example 260, 1-ethyl-5-(3-isopropyl-5-(1-propylpiperidin-4-yl)-1H-indol-2-yl)-3-(pyrimidin-5-yl)pyridin-2(1H)-one]
Human TLR8
  IC50: 3.1 nM
Human TLR7
  IC50: 23.2 nM
Human TLR9
  IC50: 2240 nM

## COCCn1cc(-c2[nH]c3ccc(C4CCN(C5CCOCC5)CC4)cc3c2C(C)C)cc(C)c1=O [Example 261, 5-(3-isopropyl-5-(1-(tetrahydro-2H-pyran-4-yl)piperidin-4-yl)-1H-indol-2-yl)-1-(2-methoxyethyl)-3-methylpyridin-2(1H)-one]
Human TLR8
  IC50: 7.1 nM
Human TLR7
  IC50: 8.8 nM
Human TLR9
  IC50: 3360 nM

## Cc1cc(-c2[nH]c3ccc(C4CCN(C5CCOCC5)CC4)cc3c2C(C)C)cn(CC(C)C)c1=O [Example 262, 1-isobutyl-5-(3-isopropyl-5-(1-(tetrahydro-2H-pyran-4-yl)piperidin-4-yl)-1H-indol-2-yl)-3-methylpyridin-2(1H)-one]
Human TLR8
  IC50: 52.3 nM
Human TLR7
  IC50: 47.7 nM
Human TLR9
  IC50: 2120 nM

## Cc1cc(-c2[nH]c3ccc(C4CCN(C5CCOCC5)CC4)cc3c2C(C)C)cn(Cc2ccccc2)c1=O [Example 263, 1-benzyl-5-(3-isopropyl-5-(1-(tetrahydro-2H-pyran-4-yl)piperidin-4-yl)-1H-indol-2-yl)-3-methylpyridin-2(1H)-one]
Human TLR8
  IC50: 24.1 nM
Human TLR7
  IC50: 10.8 nM
Human TLR9
  IC50: 1560 nM

## Cc1cc(-c2[nH]c3ccc(C4CCN(C)CC4)cc3c2C(C)C)cn(CCO)c1=O [Example 264, 1-(2-hydroxyethyl)-5-(3-isopropyl-5-(1-methylpiperidin-4-yl)-1H-indol-2-yl)-3-methylpyridin-2(1H)-one]
Human TLR8
  IC50: 927 nM
Human TLR7
  IC50: 13.5 nM
Human TLR9
  IC50: 6090 nM

## Cc1cc(-c2[nH]c3ccc(C4CCN(C)CC4)cc3c2C(C)C)cn(CC(F)(F)F)c1=O [Example 265, 5-(3-isopropyl-5-(1-methylpiperidin-4-yl)-1H-indol-2-yl)-3-methyl-1-(2,2,2-trifluoroethyl)pyridin-2(1H)-one]
Human TLR8
  IC50: 42.6 nM
Human TLR7
  IC50: 20.1 nM
Human TLR9
  IC50: 5030 nM

## Cc1cc(-c2[nH]c3ccc(C4CCN(C)CC4)cc3c2C(C)C)cn(CC(F)F)c1=O [Example 266, 1-(2,2-difluoroethyl)-5-(3-isopropyl-5-(1-methylpiperidin-4-yl)-1H-indol-2-yl)-3-methylpyridin-2(1H)-one]
Human TLR8
  IC50: 15.8 nM
Human TLR7
  IC50: 11.6 nM
Human TLR9
  IC50: 4480 nM

## Cc1cc(-c2[nH]c3ccc(C4CCN(C5CCC(C(C)(C)O)CC5)CC4)cc3c2C(C)C)cn(C)c1=O (stereo not drawn) [Example 267, 5-(5-(1-(4-(2-hydroxypropan-2-yl)cyclohexyl)piperidin-4-yl)-3-isopropyl-1H-indol-2-yl)-1,3-dimethylpyridin-2(1H)-one]
Human TLR8
  IC50: 6.6 nM
Human TLR7
  IC50: 2.2 nM
Human TLR9
  IC50: 3540 nM

## Cc1cc(-c2[nH]c3ccc(C4CCN(C5CCC(C(C)(C)O)CC5)CC4)cc3c2C(C)C)cn(C)c1=O (stereo not drawn) [Example 268, 5-(5-(1-(4-(2-hydroxypropan-2-yl)cyclohexyl)piperidin-4-yl)-3-isopropyl-1H-indol-2-yl)-1,3-dimethylpyridin-2(1H)-one]
Human TLR8
  IC50: 6.6 nM
Human TLR7
  IC50: 2.4 nM
Human TLR9
  IC50: 2630 nM

## Cc1cc(-c2[nH]c3ccc(C4CCN(C(C)c5cnn(C)c5)CC4)cc3c2C(C)C)cn(C)c1=O (stereo not drawn) [Example 269, 5-(3-isopropyl-5-(1-(1-(1-methyl-1H-pyrazol-4-yl)ethyl)piperidin-4-yl)-1H-indol-2-yl)-1,3-dimethylpyridin-2(1H)-one]
Human TLR8
  IC50: 4.6 nM
Human TLR7
  IC50: 35.5 nM
Human TLR9
  IC50: 5900 nM

## Cc1cc(-c2[nH]c3ccc(C4CCN(C5CCC(C(C)(C)O)CC5)CC4)cc3c2C(C)C)cn(C)c1=O (stereo not drawn) [Example 270, 5-(5-(1-(4-(2-hydroxypropan-2-yl)cyclohexyl)piperidin-4-yl)-3-isopropyl-1H-indol-2-yl)-1,3-dimethylpyridin-2(1H)-one]
Human TLR8
  IC50: 4.7 nM
Human TLR7
  IC50: 2.1 nM
Human TLR9
  IC50: 4160 nM

## Cc1cc(-c2[nH]c3ccc(C4CCN(C(=O)CN(C)C)CC4)cc3c2C(C)C)cn(C)c1=O [Example 271, 5-(5-(1-(2-(dimethylamino)acetyl)piperidin-4-yl)-3-isopropyl-1H-indol-2-yl)-1,3-dimethylpyridin-2(1H)-one]
Human TLR8
  IC50: 8.3 nM
Human TLR7
  IC50: 5.3 nM
Human TLR9
  IC50: 13500 nM
